Data: patent US20110152326A1, “SUBSTITUTED ARYLOXOETHYL CYCLOPROPANECARBOXAMIDE COMPOUNDS AS VR1 RECEPTOR ANTAGONISTS” (priority 2005, published 2011)

These compounds were tested against T1, human VR1 receptors (Homo sapiens, UniProt Q8NER1) (assay: Human VR1 antagonist assay, Ca2+ imaging, capsaicin stimulation). Settings: human VR1 expressing cells; concentration required to reduce capsaicin-evoked Ca2+ influx by 50%; capsaicin 300 nM; read-out: hVR1 IC50.
T1 construct: host or cells: cells that highly express human VR1 receptors
T1 sequence (Q8NER1 whole entry): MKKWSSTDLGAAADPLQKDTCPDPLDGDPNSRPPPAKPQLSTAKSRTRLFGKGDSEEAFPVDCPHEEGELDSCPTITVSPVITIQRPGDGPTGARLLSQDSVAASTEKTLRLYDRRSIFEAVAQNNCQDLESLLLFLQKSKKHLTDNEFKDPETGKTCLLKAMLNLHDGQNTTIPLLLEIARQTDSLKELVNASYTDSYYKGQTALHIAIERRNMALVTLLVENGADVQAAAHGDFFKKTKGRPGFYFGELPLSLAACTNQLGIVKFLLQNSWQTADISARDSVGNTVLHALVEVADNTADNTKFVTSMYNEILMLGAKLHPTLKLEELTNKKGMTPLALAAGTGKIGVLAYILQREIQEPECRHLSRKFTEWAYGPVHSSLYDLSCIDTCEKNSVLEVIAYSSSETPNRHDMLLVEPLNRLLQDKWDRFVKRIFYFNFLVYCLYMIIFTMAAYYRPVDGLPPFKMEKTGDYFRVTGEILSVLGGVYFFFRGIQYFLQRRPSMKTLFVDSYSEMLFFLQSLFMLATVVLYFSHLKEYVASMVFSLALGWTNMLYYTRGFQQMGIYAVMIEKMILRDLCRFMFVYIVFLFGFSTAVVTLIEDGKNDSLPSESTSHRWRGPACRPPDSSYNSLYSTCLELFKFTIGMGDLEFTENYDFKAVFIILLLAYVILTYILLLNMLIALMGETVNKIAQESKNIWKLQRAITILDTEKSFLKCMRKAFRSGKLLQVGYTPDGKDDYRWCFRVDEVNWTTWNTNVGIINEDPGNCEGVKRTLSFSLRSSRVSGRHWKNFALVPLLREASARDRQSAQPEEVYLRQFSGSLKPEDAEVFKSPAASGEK
Assay type: cell-based
Excerpt: VR1 antagonistic activity can be determined by the Ca^2+ imaging assay using human VR1 highly expressing cells. The cells that highly express human VR1 receptors are obtainable from several different conventional methods. The one standard method is cloning from human Dorsal Root Ganglion (DRG) or kidney according to the methods such as described in the journal article; Nature, 389, pp 816-824, 1997. Alternatively VR1 receptors highly expressing human keratinocytes are also known and published in the journal article (Biochemical and Biophysical Research Communications, 291, pp 124-129, 2002). […] Further more, the method to up regulate human VR1 gene, which is usually a silent gene or don't produce detectable level of VR1 receptors, is also available to obtain propriety cells. Such genetic modification method was described in detail; Nat. Biotechnol., 19, pp 440-445, 2001.
The cells that express human VR1 receptors were maintained in culture flask at 37° C. in an environment containing 5% CO2 until use in the assay. The intracellular Ca^2+ imaging assay to determine VR1 antagonistic activities were done by following procedures.
The culture medium was removed from the flask and fura-2/AM fluorescent calcium indicator was added to the flask at a concentration of 5 μM in the medium. The flask was placed in CO2 incubator and incubated for 1 hour. Then the cells expressing the human VR1 receptors were detached from the flask follow by washing with phosphate buffer saline, PBS(−) and re-suspended in assay buffer. The 80 μl of aliquot of cell suspension (3.75×10^5 cells/ml) was added to the assay plate and the cells were spun down by centrifuge (950 rpm, 20° C., 3 minutes).
The capsaicin-induced changes in the intracellular calcium concentration were monitored using FDSS 6000 (Hamamatsu Photonics, Japan), a fluorometric imaging system. The cell suspension in Krebs-Ringer HEPES (KRH) buffer (115 mM NaCl, 5.4 mM KCl, 1 mM MgSO4, 1.8 mM CaCl2, 11 mM D-Glucose, 25 mM HEPES, 0.96 mM Na2HPO4, pH 7.3) were pre-incubated with varying concentrations of the test compounds or KRH buffer (buffer control) for 15 minutes at room temperature under the dark condition. Then capsaicin solution, which gives 300 nM in assay mixture, was automatically added to the assay plate by the FDSS 6000.
The monitoring of the changes in the fluorescence signals (λex=340 nm/380 nm, λem=510-520 nm) was initiated at 1 minute prior to the addition of capsaicin solution or acidic buffer and continued for 5 minute.
In the case of Cc1cccnc1C(=O)CNC(=O)C1CC1c1ccc(C(C)(C)C)cc1 (stereo not shown) [Example 1, 2-(4-Tert-Butylphenyl)-N-[2-(3-Methylpyridin-2-yl)-2-Oxoethyl]Cyclopropanecarboxamide], the IC50 is reported as 0.102 µM.
COc1ccc(C)c(C(=O)CNC(=O)C2CC2c2ccc(C(C)(C)C)cc2)c1 (stereo not shown) [Example 2, 2-(4-Tert-Butylphenyl)-N-[2-(5-Methoxy-2-Methylphenyl)-2-Oxoethyl]Cyclopropanecarboxamide] gave an IC50 of 1.01 µM.
Cc1ccc(O)cc1C(=O)CNC(=O)C1CC1c1ccc(C(C)(C)C)cc1 (stereo not shown) [Example 3, 2-(4-Tert-Butylphenyl)-N-[2-(5-Hydroxy-2-Methylphenyl)-2-Oxoethyl]Cyclopropanecarboxamide] was tested, and the IC50 was 0.704 µM.
With Cc1cccnc1C(=O)CNC(=O)C1CC1c1ccc(C(C)(C)C)c(F)c1 (stereo not shown) [Example 4, 2-(4-Tert-Butyl-3-Fluorophenyl)-N-[2-(3-Methylpyridin-2-yl)-2-Oxoethyl]Cyclopropanecarboxamide] the IC50 was 0.099 µM.
Work on Cc1cccnc1C(=O)CNC(=O)C1CC1c1ccc(C(C)(C)C(F)(F)F)cc1 (stereo not shown) [Example 5, N-[2-(3-Methylpyridin-2-yl)-2-Oxoethyl]-2-[4-(2,2,2-Trifluoro-1,1-Dimethylethyl)Phenyl]Cyclopropanecarboxamide] yielded an IC50 of 0.111 µM.
With Cc1cccnc1C(=O)CNC(=O)C1CC1(C)c1ccc(C(C)(C)C)cc1 (stereo not shown) [Example 6, 2-(4-Tert-Butylphenyl)-2-Methyl-N-[2-(3-Methylpyridin-2-yl)-2-Oxoethyl]Cyclopropanecarboxamide] the IC50 was 0.134 µM.
Cc1cccnc1C(=O)CNC(=O)C1CC1c1ccc(C(C)(C)C)c(Cl)c1 (stereo not shown) [Example 7, 2-(4-Tert-Butyl-3-Chlorophenyl)-N-[2-(3-Methylpyridin-2-yl)-2-Oxoethyl]Cyclopropanecarboxamide] was tested, and the IC50 was 0.092 µM.
CC(C)(C)c1ccc(C2CC2C(=O)NCC(=O)c2ncccc2C(F)(F)F)cc1F (stereo not shown) [Example 8, 2-(4-Tert-Butyl-3-Fluorophenyl)-N-[2-(3-Trifluoromethylpyridin-2-yl)-2-Oxoethyl]Cyclopropanecarboxamide] showed an IC50 of 0.102 µM.
In the case of Cc1cccnc1C(=O)CNC(=O)C1C(c2ccc(C(C)(C)C)cc2)C1(F)F (stereo not shown) [Example 9, 3-(4-Tert-Butylphenyl)-2,2-Difluoro-N-[2-(3-Methylpyridin-2-yl)-2-Oxoethyl]Cyclopropanecarboxamide], the IC50 is reported as 0.306 µM.
Work on Cn1ccnc1C(=O)CNC(=O)C1CC1c1ccc(C(C)(C)C)c(F)c1 (stereo not shown) [Example 10, 2-(4-Tert-Butyl-3-Fluorophenyl)-N-[2-(1-Methyl-1H-Imidazol-2-yl)-2-Oxoethyl]Cyclopropanecarboxamide] yielded an IC50 of 0.238 µM.
Cn1ccnc1C(=O)CNC(=O)C1CC1(C)c1ccc(C(C)(C)C(F)(F)F)cc1 (stereo not shown) [Example 11, 2-Methyl-N-[2-(1-Methyl-1H-Imidazol-2-yl)-2-Oxoethyl]-2-[4-(2,2,2-Trifluoro-1,1-Dimethylethyl)Phenyl]Cyclopropanecarboxamide] gave an IC50 of 0.451 µM.
With CCn1ccnc1C(=O)CNC(=O)C1CC1(C)c1ccc(C(C)(C)C(F)(F)F)cc1 (stereo not shown) [Example 12, N-[2-(1-Ethyl-1H-Imidazol-2-yl)-2-Oxoethyl]-2-Methyl-2-[4-(2,2,2-Trifluoro-1,1-Dimethylethyl)Phenyl]Cyclopropanecarboxamide] the IC50 was 0.34 µM.
CCn1ccnc1C(=O)CNC(=O)C1CC1c1cc(F)c(C(C)(C)C(F)(F)F)c(F)c1 (stereo not shown) [Example 13, 2-[3,5-Difluoro-4-(2,2,2-Trifluoro-1,1-Dimethylethyl)Phenyl]-N-[2-(1-Ethyl-1H-Imidazol-2-yl)-2-Oxoethyl]Cyclopropanecarboxamide] gave an IC50 of 0.069 µM.
